Results from publication PMC4402537, “mRNA maturation in giant viruses: variation on a theme” (Nucleic Acids Research, 2015).

Experiments:
Mg18 (H6c+Mg18) = biological target: T1, Mg18 (H6c+Mg18) (Megavirus chiliensis, UniProt G5CQI9); assay: methyl transfer from 3H-AdoMet to RNA, DEAE filter binding; format: biochemical; settings: 10 μM AdoMet, GpppAN13, 7MeGpppAN13 or poly(A) RNA 0.7 μM, 1 mM MgCl2, pH 7.5, 30°C; labelled compound
T1 construct: gene mchi_21; full length, N-terminal His6 tag kept; E. coli Rosetta (DE3)
T1 sequence (G5CQI9 1-340): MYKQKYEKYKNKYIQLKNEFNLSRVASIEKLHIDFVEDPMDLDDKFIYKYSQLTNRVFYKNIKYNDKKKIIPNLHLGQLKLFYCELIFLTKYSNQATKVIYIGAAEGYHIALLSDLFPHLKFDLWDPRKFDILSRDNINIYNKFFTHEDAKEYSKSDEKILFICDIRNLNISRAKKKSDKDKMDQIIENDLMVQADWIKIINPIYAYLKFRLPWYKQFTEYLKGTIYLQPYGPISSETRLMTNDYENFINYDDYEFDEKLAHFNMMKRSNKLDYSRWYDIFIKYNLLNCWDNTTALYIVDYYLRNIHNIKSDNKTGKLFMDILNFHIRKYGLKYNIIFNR

[1] = biological target: Mimivirus polyA polymerase R341, after tag removal (H6c-R341) (Mimivirus); assay: SEC; gel filtration of purified proteins, GE Healthcare markers for calibration
R341 (H6c-R341) = biological target: T2, R341 (H6c-R341) (Acanthamoeba polyphaga mimivirus, UniProt Q5UQS6); settings: 100 μM ATP, 5 mM MgCl2 or 0.5 mM MnCl2, pH 7.5, 30°C
T2 construct: gene MIMI_R341

Mg561 (H6c-Mg561) [2] = biological target: T3, Mg561 (H6c-Mg561) (Megavirus chiliensis, UniProt G5CT11); assay: in vitro polyadenylation of […]-labelled 20-mer RNA, urea-PAGE; format: biochemical; settings: 100 μM ATP, 5 mM MgCl2 or 0.5 mM MnCl2, pH 7.5, 30°C
T3 construct: gene mchi_555; full length, N-terminal His6 tag removed by HRV 3C protease; E. coli Rosetta (DE3)
T3 sequence (G5CT11 1-531): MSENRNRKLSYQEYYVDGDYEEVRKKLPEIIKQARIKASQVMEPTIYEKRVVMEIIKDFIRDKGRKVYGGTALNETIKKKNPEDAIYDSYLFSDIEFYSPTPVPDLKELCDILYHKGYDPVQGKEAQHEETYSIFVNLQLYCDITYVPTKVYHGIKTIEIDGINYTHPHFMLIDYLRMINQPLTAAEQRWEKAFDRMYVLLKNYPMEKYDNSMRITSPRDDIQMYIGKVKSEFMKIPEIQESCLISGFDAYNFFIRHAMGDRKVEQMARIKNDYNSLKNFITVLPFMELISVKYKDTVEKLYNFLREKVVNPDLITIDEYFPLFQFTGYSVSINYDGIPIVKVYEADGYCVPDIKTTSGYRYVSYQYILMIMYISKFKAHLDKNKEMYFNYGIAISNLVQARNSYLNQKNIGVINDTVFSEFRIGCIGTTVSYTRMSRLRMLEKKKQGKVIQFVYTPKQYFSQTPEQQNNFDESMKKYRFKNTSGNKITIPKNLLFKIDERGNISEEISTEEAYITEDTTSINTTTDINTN

Mg561 (H6c-Mg561) [3] = biological target: T3, Mg561 (H6c-Mg561); assay: in vitro polyU tailing of […]-labelled 20-mer RNA, urea-PAGE; format: biochemical; settings: 100 μM UTP in place of ATP, Mn2+ (similar with Mg2+), pH 7.5, 30°C
[4] = biological target: Megavirus chilensis polyA polymerase Mg561, after tag removal (H6c-Mg561) (Megavirus chilensis); assay: SEC; gel filtration of purified proteins, GE Healthcare markers for calibration
[5] = biological target: Megavirus chilensis Mg18 protein with N-terminal His6 tag (H6c+Mg18) (Megavirus chilensis); assay: BLI

C[S+](CC[C@H](N)C(=O)O)C[C@H]1O[C@@H](n2cnc3c(N)ncnc32)[C@H](O)[C@@H]1O (stereo partly shown) [AdoMet]
methyl transfer from 3H-AdoMet to RNA, DEAE filter binding (Mg18 (H6c+Mg18)): Mg18 had comparable activity with 7MeGpppAN13 and GpppAN13

Mimivirus polyA polymerase R341, after tag removal (H6c-R341) (enzyme)
stoichiometry N [1]: 2

Nc1ncnc2c1ncn2[C@@H]1O[C@H](COP(=O)(O)OP(=O)(O)OP(=O)(O)O)[C@@H](O)[C@H]1O [ATP]
in vitro polyadenylation of 32P-labelled 20-mer RNA, urea-PAGE (R341 (H6c-R341)): synthesize long products, apparently proccessively, derived from the RNA and ATP | in vitro polyadenylation of 32P-labelled 20-mer RNA, urea-PAGE (Mg561 (H6c-Mg561) [2]): synthesize long products, apparently proccessively, derived from the RNA and ATP

O=c1ccn([C@@H]2O[C@H](COP(=O)(O)OP(=O)(O)OP(=O)(O)O)[C@@H](O)[C@H]2O)c(=O)[nH]1 [UTP]
in vitro polyU tailing of 32P-labelled 20-mer RNA, urea-PAGE (Mg561 (H6c-Mg561) [3]): Mg561 was also able to add long polyU tails, although with a reduced activity

Megavirus chilensis polyA polymerase Mg561, after tag removal (H6c-Mg561) (enzyme)
stoichiometry N [4]: 2 | Kd [5]: 6.2 µM
